Laboratory results: patent publication US7671054B1, “Reverse-turn mimetics and method relating thereto” (Choongwae Pharma Corporation, priority 2001, dated 2010)

Each compound was assayed on TCF4/β-catenin transcription (TOPFlash) in SW480 cells (assay: Reporter gene assay (TOPFlash luciferase)). Details: Homo sapiens, SW480.
Format: cell-based
Experimental: SW480 cells were transfected with the usage of Superfect™ transfect reagent (Qiagen, 301307). Cells were trypsinized briefly 1 day before transfection and plated on 6 well plate (5×10^5 cells/well) so that they were 50-80% confluent on the day of transfection.
Four microgram (TOPFlash) and one microgram (pRL-null) of DNAs were diluted in 150 μl of serum-free medium, and 30 μl of Superfect™ transfect reagent was added. The DNA-Superfect mixture was incubated at room temperature for 15 min, and then, 1 ml of 10% FBS DMEM was added to this complex for an additional 3 hours of incubation. While complexes were forming, cells were washed with PBS twice without antibiotics.
The DNA-Superfect™ transfect reagent complexes were applied to the cells before incubating at 37° C. at 5% CO2 for 3 hours. After incubation, recovery medium with 10% FBS was added to bring the final volume to 1.18 ml. After 3 hours incubation, the cells were harvested and reseeded to 96 well plate (3×10^4 cells/well). After overnight incubation at 37° C. at 5% CO2, the cells were treated with Compound A for 24 hours. Finally, the activity was checked by means of luciferase assay (Promega, E1960).

| SMILES | IC50 |
| --- | --- |
| C=CCN1CC(=O)N2[C@@H](Cc3ccc(OC(=O)NCCN(C)C)cc3)C(=O)N(Cc3ccc(F)cc3F)C[C@@H]2N1C(=O)NCc1ccccc1 [Compound 173] | 1800 ± 200 nM |

Same assay, conditions: Homo sapiens, SW480, Table 4; Reporter gene assay as described in Example 6; read-out: IC50

| SMILES | IC50 |
| --- | --- |
| CCCN1CC(=O)N2[C@@H](Cc3ccc(O)cc3)C(=O)N(Cc3ccc(Cl)c(N(C)C)c3)C[C@@H]2N1C(=O)NCc1ccccc1 [Compound 126] | 10300 ± 1500 nM |
| C=CCN1CC(=O)N2[C@@H](Cc3ccc(O)cc3)C(=O)N(Cc3cccc(N4CCOCC4)c3)C[C@@H]2N1C(=O)NCc1ccccc1 [Compound 127] | 1800 ± 200 nM |
| C=CCN1CC(=O)N2[C@@H](Cc3ccc(O)cc3)C(=O)N(Cc3cccc4cccnc34)C[C@@H]2N1C(=O)NCc1ccccc1 [Compound 128] | 400 ± 100 nM |
| C=CCN1CC(=O)N2[C@@H](Cc3ccc(O)cc3)C(=O)N(Cc3ccc(Cl)c(N(C)C)c3)C[C@@H]2N1C(=O)NCc1ccccc1 [Compound 129] | 2400 ± 500 nM |
| CN1CC(=O)N2[C@@H](Cc3ccc(O)cc3)C(=O)N(Cc3cccc(OCCN4CCOCC4)c3)C[C@@H]2N1C(=O)NCc1ccccc1 [Compound 130] | 6100 ± 400 nM |
| C#CCN1CC(=O)N2[C@@H](Cc3ccc(O)cc3)C(=O)N(Cc3cccc(OCCN4CCOCC4)c3)C[C@@H]2N1C(=O)NCc1ccccc1 [Compound 131] | 2200 ± 300 nM |
| C=CCN1CC(=O)N2[C@@H](Cc3ccc(O)cc3)C(=O)N(Cc3cccc(OCCN4CCOCC4)c3)C[C@@H]2N1C(=O)NCc1ccccc1 [Compound 132] | 2300 ± 500 nM |
| C=CCN1CC(=O)N2[C@@H](Cc3ccc(O)cc3)C(=O)N(Cc3ccc(C)c(N4CCOCC4)c3)C[C@@H]2N1C(=O)NCc1ccccc1 [Compound 133] | 3500 ± 700 nM |
| C#CCN1CC(=O)N2[C@@H](Cc3ccc(O)cc3)C(=O)N(Cc3ccc(C)c(N4CCOCC4)c3)C[C@@H]2N1C(=O)NCc1ccccc1 [Compound 134] | 4500 ± 900 nM |
| C#CCN1CC(=O)N2[C@@H](Cc3ccc(O)cc3)C(=O)N(Cc3ccc4c(c3)OCCO4)C[C@@H]2N1C(=O)NCc1ccccc1 [Compound 135] | 2400 ± 700 nM |
| C=CCN1CC(=O)N2[C@@H](Cc3ccc(O)cc3)C(=O)N(Cc3ccc4[nH]nnc4c3)C[C@@H]2N1C(=O)NCc1ccccc1 [Compound 136] | 28000 ± 2900 nM |
| C=CCN1CC(=O)N2[C@@H](Cc3ccc(O)cc3)C(=O)N(Cc3ccc(Cl)c4cccnc34)C[C@@H]2N1C(=O)NCc1ccccc1 [Compound 137] | 600 ± 100 nM |
| C#CCN1CC(=O)N2[C@@H](Cc3ccc(O)cc3)C(=O)N(Cc3ccc(Cl)c4cccnc34)C[C@@H]2N1C(=O)NCc1ccccc1 [Compound 138] | 1000 ± 200 nM |
| C=CCN1CC(=O)N2[C@@H](Cc3ccc(O)cc3)C(=O)N(Cc3ccc(Cl)c(N4CCOCC4)c3)C[C@@H]2N1C(=O)NCc1ccccc1 [Compound 139] | 1100 ± 100 nM |
| C#CCN1CC(=O)N2[C@@H](Cc3ccc(O)cc3)C(=O)N(Cc3ccc(Cl)c(N4CCOCC4)c3)C[C@@H]2N1C(=O)NCc1ccccc1 [Compound 140] | 2700 ± 300 nM |
| C#CCN1CC(=O)N2[C@@H](Cc3ccc(O)cc3)C(=O)N(Cc3ccc4ncsc4c3)C[C@@H]2N1C(=O)NCc1ccccc1 [Compound 141] | 1800 ± 300 nM |
| C=CCN1CC(=O)N2[C@@H](Cc3ccc(O)cc3)C(=O)N(Cc3ccc4ncsc4c3)C[C@@H]2N1C(=O)NCc1ccccc1 [Compound 142] | 1600 ± 400 nM |
| C=CCN1CC(=O)N2[C@@H](Cc3ccc(O)cc3)C(=O)N(Cc3ccc(F)cc3F)C[C@@H]2N1C(=O)NCc1ccccc1 [Compound 143] | 1300 ± 200 nM |
| C#CCN1CC(=O)N2[C@@H](Cc3ccc(O)cc3)C(=O)N(Cc3ccc(F)cc3F)C[C@@H]2N1C(=O)NCc1ccccc1 [Compound 144] | 2100 ± 200 nM |
| C=CCN1CC(=O)N2[C@@H](Cc3ccc(O)cc3)C(=O)N(Cc3cccc4c3N(C)CCO4)C[C@@H]2N1C(=O)NCc1ccccc1 [Compound 145] | 300 ± 40 nM |
| C#CCN1CC(=O)N2[C@@H](Cc3ccc(O)cc3)C(=O)N(Cc3ccc4c(c3)OCCN4C)C[C@@H]2N1C(=O)NCc1ccccc1 [Compound 146] | 16700 ± 1400 nM |
| C=CCN1CC(=O)N2[C@@H](Cc3ccc(O)cc3)C(=O)N(Cc3ccc4c(c3)OCCN4C)C[C@@H]2N1C(=O)NCc1ccccc1 [Compound 147] | 9400 ± 1000 nM |
| CCCN1CC(=O)N2[C@@H](Cc3ccc(O)cc3)C(=O)N(Cc3ccc(Cl)c4cccnc34)C[C@@H]2N1C(=O)NCc1ccccc1 [Compound 148] | 2600 ± 300 nM |
| C=C(C)CN1CC(=O)N2[C@@H](Cc3ccc(O)cc3)C(=O)N(Cc3ccc(Cl)c4cccnc34)C[C@@H]2N1C(=O)NCc1ccccc1 [Compound 149] | 31000 ± 6400 nM |
| CN1CC(=O)N2[C@@H](Cc3ccc(O)cc3)C(=O)N(Cc3cccc(N4CCCC4=O)c3)C[C@@H]2N1C(=O)NCc1ccccc1 [Compound 150] | 12700 ± 700 nM |
| C=CCN1CC(=O)N2[C@@H](Cc3ccc(O)cc3)C(=O)N(Cc3cccc(N4CCCC4=O)c3)C[C@@H]2N1C(=O)NCc1ccccc1 [Compound 152] | 1200 ± 300 nM |

| SMILES | IC50 |
| --- | --- |
| C=CCN1CC(=O)N2[C@@H](Cc3ccc(O)cc3)C(=O)N(Cc3cccc(N4CCCC4)c3)C[C@@H]2N1C(=O)NCc1ccccc1 [Compound 154] | 3200 ± 400 nM |
| CCCN1CC(=O)N2[C@@H](Cc3ccc(O)cc3)C(=O)N(Cc3cc(N(C)C(C)C)cc(C(F)(F)F)c3)C[C@@H]2N1C(=O)NCc1ccccc1 [Compound 155] | 30500 ± 4100 nM |
| C=CCN1CC(=O)N2[C@@H](Cc3ccc(O)cc3)C(=O)N(Cc3cc(N(C)C(C)C)cc(C(F)(F)F)c3)C[C@@H]2N1C(=O)NCc1ccccc1 [Compound 156] | 13300 ± 1600 nM |
| CCCN1CC(=O)N2[C@@H](Cc3ccc(O)cc3)C(=O)N(Cc3ccc(F)cc3F)C[C@@H]2N1C(=O)NCc1ccccc1 [Compound 157] | 4200 ± 100 nM |
| C=CCN1CC(=O)N2[C@@H](Cc3ccc(O)cc3)C(=O)N(Cc3cccc4c3OCCN4C)C[C@@H]2N1C(=O)NCc1ccccc1 [Compound 158] | 900 ± 20 nM |
| C=CCN1CC(=O)N2[C@@H](Cc3ccc(NC=O)cc3)C(=O)N(Cc3ccc(F)cc3F)C[C@@H]2N1C(=O)NCc1ccccc1 [Compound 159] | 2700 ± 200 nM |
| CCCN1CC(=O)N2[C@@H](Cc3ccc(NC=O)cc3)C(=O)N(Cc3ccc(F)cc3F)C[C@@H]2N1C(=O)NCc1ccccc1 [Compound 160] | 10600 ± 500 nM |
| C=CCN1CC(=O)N2[C@@H](Cc3ccc(OP(=O)(O)O)cc3)C(=O)N(Cc3ccc(Cl)c(N(C)C)c3)C[C@@H]2N1C(=O)NCc1ccccc1 [Compound 161] | 1800 ± 200 nM |
| C=CCN1CC(=O)N2[C@@H](Cc3ccc(O)cc3)C(=O)N(Cc3cc(F)c(F)cc3N(C)C)C[C@@H]2N1C(=O)NCc1ccccc1 [Compound 162] | 1800 ± 600 nM |
| C=CCN1CC(=O)N2[C@@H](Cc3ccc(OP(=O)(O)O)cc3)C(=O)N(Cc3cc(F)c(F)cc3N(C)C)C[C@@H]2N1C(=O)NCc1ccccc1 [Compound 163] | 1700 ± 500 nM |
| C=CCN1CC(=O)N2[C@@H](Cc3ccc(O)cc3)C(=O)N(Cc3ccccc3)C[C@@H]2N1C(=O)NCc1ccccc1 [Compound 164] | 1100 ± 200 nM |
| [2H]C([2H])(c1ccc(O)cc1)[C@H]1C(=O)N(Cc2cccc3ccccc23)C[C@H]2N1C(=O)CN(C)N2C(=O)NCc1ccccc1 [Compound 165] | 3900 ± 300 nM |
| [2H]c1cc(C[C@H]2C(=O)N(Cc3cccc4ccccc34)C[C@H]3N2C(=O)CN(C)N3C(=O)NCc2ccccc2)cc([2H])c1O [Compound 166] | 3300 ± 200 nM |
| C=CCN1CC(=O)N2[C@@H](Cc3ccc(O)cc3)C(=O)N(Cc3cc(C)cc4c3N(C)CCO4)C[C@@H]2N1C(=O)NCc1ccccc1 [Compound 167] | 1300 ± 100 nM |
| CCCN1CC(=O)N2[C@@H](Cc3ccc(O)cc3)C(=O)N(Cc3ccccc3)C[C@@H]2N1C(=O)NCc1ccccc1 [Compound 168] | 3500 ± 300 nM |
| C=CCN1CC(=O)N2C(Cc3ccc(O)cc3)C(=O)N(Cc3ccc(F)cc3F)CC2N1C(=O)NCc1ccccc1 (centres unmarked) [Compound 170] | 1500 ± 500 nM |
| [2H]c1cc(O)cc([2H])c1C[C@H]1C(=O)N(Cc2cccc3ccccc23)C[C@H]2N1C(=O)CN(C)N2C(=O)NCc1ccccc1 [Compound 172] | 2900 ± 400 nM |
| C=CCN1CC(=O)N2[C@@H](Cc3ccc(OP(=O)(O)O)cc3)C(=O)N(Cc3ccccc3)C[C@@H]2N1C(=O)NCc1ccccc1 [Compound 174] | 1000 ± 100 nM |
| C=CCN1CC(=O)N2[C@@H](Cc3ccc(O)cc3)C(=O)N(Cc3ccc(F)cc3F)C[C@@H]2N1C(=O)NCc1ccc(F)cc1 [Compound 175] | 5400 ± 500 nM |
| CC(C)N1CC(=O)N2[C@@H](Cc3ccc(O)cc3)C(=O)N(Cc3ccc(F)cc3F)C[C@@H]2N1C(=O)NCc1ccccc1 [Compound 176] | 4000 ± 400 nM |
| C=CCN1CC(=O)N2[C@@H](Cc3ccc(O)cc3)C(=O)N(Cc3ccc(F)cc3F)[C@@H](C)[C@@H]2N1C(=O)NCc1ccccc1 [Compound 177] | 5300 ± 400 nM |
| C=CCN1CC(=O)N2[C@@H](Cc3ccc(O)cc3)C(=O)N(Cc3ccc(F)c(F)c3)C[C@@H]2N1C(=O)NCc1ccccc1 [Compound 178] | 1200 ± 100 nM |
| C=CCN1CC(=O)N2[C@@H](Cc3ccc(O)cc3)C(=O)N(Cc3ccc(F)cc3F)C[C@@H]2N1C(=O)NCc1ccc(Cl)c(Cl)c1 [Compound 179] | 2300 ± 200 nM |
| C=CCN1CC(=O)N2[C@@H](Cc3ccc(O)cc3)C(=O)N(Cc3ccc(Cl)c(Cl)c3)C[C@@H]2N1C(=O)NCc1ccccc1 [Compound 180] | 1300 ± 100 nM |
| C=CCN1CC(=O)N2[C@@H](CC3(O)C=CC(=O)C=C3)C(=O)N(Cc3ccc(F)cc3F)C[C@@H]2N1C(=O)NCc1ccccc1 [Compound 181] | 6700 ± 600 nM |
| C=CCN1CC(=O)N2[C@@H](Cc3ccc(O)cc3)C(=O)N(Cc3cccc4scnc34)C[C@@H]2N1C(=O)NCc1ccccc1 [Compound 182] | 600 ± 40 nM |
